# “Also recorded” adds a separate entry of the source.
# Tested on: AgamOR10
# Assay: not given
# Parameters: method as in PMID 20130575, PMID 20160092, PMID 18427108
# Settings: cited from earlier work
row,SMILES,response of AgamOR10
1,Cc1c[nH]c2ccccc12 [3-Methylindole],strongly respond
2,Cc1ccc(O)cc1 [4-methylphenol],strongly respond
3,c1ccc2[nH]ccc2c1 [Indole],strongly respond

# Tested on: AgamOR2
# Assay: not given
# Parameters: method as in PMID 20130575, PMID 20160092, PMID 14724626, PMID 18427108
# Settings: cited from earlier work
row,SMILES,response of AgamOR2
1,Cc1ccccc1O [2-Methylphenol],strongly respond
2,Cc1c[nH]c2ccccc12 [3-Methylindole],strongly respond
3,c1ccc2[nH]ccc2c1 [Indole],strongly respond

# Tested on: gravid Culex mosquitoes
# Assay: not given
# Parameters: method as in PMID 18725946, PMID 10083752, PMID 1583482, PMID 15274442
# Settings: indoor bioassays and field tests; cited from earlier work
row,SMILES,attraction of gravid Culex mosquitoes
1,Cc1c[nH]c2ccccc12 [3-Methylindole],attractants
2,c1ccc2[nH]ccc2c1 [Indole],attractants

# Tested on: ORN-B in the blunt-tipped trichoid sensilla A2
# Assay: not given
# Parameters: method as in PMID 19858490
# Settings: cited from earlier work
row,SMILES,response threshold compared with 2-methylphenol
1,Cc1cccc(O)c1 [3-methylphenol],three orders of magnitude higher
2,Cc1ccc(O)cc1 [4-methylphenol],three orders of magnitude higher

# Same assay, conditions: compounds tested individually; cited from earlier work
row,SMILES,excitatory response of ORN-B
1,Cc1ccccc1O [2-Methylphenol],eliciting the strongest response
2,c1ccc2[nH]ccc2c1 [Indole],strongest dose-dependent responses

# Same assay, conditions: single sensillum recordings from A2; cited from earlier work
row,SMILES,selectivity for indole over methylindoles
1,c1ccc2[nH]ccc2c1 [Indole],three orders of magnitude selectivity

# Target: CquiOR2 + CquiOR7 (Culex quinquefasciatus, UniProt D5LMR6)
# Sequence (Q309I4 entry or part of it): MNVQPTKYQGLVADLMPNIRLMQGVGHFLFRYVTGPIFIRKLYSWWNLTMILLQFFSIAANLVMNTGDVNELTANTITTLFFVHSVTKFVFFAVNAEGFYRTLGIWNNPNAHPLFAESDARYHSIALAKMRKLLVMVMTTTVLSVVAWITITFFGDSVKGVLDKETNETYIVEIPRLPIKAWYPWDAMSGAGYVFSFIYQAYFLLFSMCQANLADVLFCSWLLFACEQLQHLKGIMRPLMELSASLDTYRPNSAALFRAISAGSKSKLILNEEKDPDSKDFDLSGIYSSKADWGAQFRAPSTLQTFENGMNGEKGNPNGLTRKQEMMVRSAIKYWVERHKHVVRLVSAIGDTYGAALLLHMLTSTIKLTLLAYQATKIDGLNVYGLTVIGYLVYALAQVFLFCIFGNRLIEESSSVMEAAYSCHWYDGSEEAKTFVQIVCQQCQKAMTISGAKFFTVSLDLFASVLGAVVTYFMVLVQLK
# Sequence (D5LMR6 entry or part of it): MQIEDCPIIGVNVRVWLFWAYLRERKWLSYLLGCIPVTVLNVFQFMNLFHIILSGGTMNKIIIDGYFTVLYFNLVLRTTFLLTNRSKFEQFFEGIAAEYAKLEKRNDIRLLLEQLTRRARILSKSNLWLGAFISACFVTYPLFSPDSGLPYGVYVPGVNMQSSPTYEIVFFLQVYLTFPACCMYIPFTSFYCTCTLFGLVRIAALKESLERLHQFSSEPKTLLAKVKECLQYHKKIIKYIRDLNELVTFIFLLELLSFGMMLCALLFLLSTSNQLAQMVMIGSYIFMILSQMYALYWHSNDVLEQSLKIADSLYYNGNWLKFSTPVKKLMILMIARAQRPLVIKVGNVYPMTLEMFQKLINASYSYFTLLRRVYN
# Assay: Two-electrode voltage clamp of Xenopus oocytes expressing CquiOR2 + CquiOR7
# Assay type: cell-based
# Settings: not given
# Procedure: Oocytes were surgically removed from mature Xenopus laevis frogs (Nasco). The care and use of Xenopus laevis frogs in this study were approved by the University of Miami Animal Research Committee and meet the guidelines of the National Institutes of Health. Follicle cells were removed by treatment with Collagenase B (Boehringer Mannhem) for 2 h at room temperature. CquiOR2 and CquiOR7 were transferred into pGEMHE [27]. Capped cRNA encoding each OR subunit was generated using mMessage mMachine kits (Ambion). 25 ng of cRNA encoding each OR subunit was injected into Stage V-VI Xenopus oocytes. Oocytes were incubated at 18°C in Barth's saline (in mM: 88 NaCl, 1 KCl, 2.4 NaHCO3, 0.3 CaNO3, 0.41 CaCl2, 0.82 MgSO4, 15 HEPES, pH 7.6, and 100 µg/ml amikacin) for 2–5 days prior to electrophysiological recording.
# Odorant-induced currents were recorded under two-electrode voltage clamp from oocytes expressing ORs, using an automated parallel electrophysiology system (OpusXpress 6000A; Molecular Devices). Oocytes were perfused with ND96 (in mM: 96 NaCl, 2 KCl, 1 CaCl2, 1 MgCl2, 5 HEPES, pH 7.5). […] Micropipettes were filled with 3 M KCl and had resistances of 0.2–2.0 MΩ. The holding potential was −70 mV. Current responses were filtered (4-pole, Bessel, low pass) at 20 Hz (-3 db), sampled at 100 Hz and were captured and stored using OpusXpress 1.1 software (Molecular Devices). Initial analysis of electrophysiological data was done using Clampfit 9.1 software (Molecular Devices). Curve fitting of concentration-response data was done using Prism 4 (Graphpad). Concentration-response data were fit to the equation: I = Imax/(1+(EC50/X)^n) where I represents the current response at a given concentration of odorant, X; Imax is the maximal response; EC50 is the concentration of odorant yielding a half maximal response; n is the apparent Hill coefficient.
row,SMILES,EC50 [µM]
1,Cn1ccc2ccccc21 [1-Methylindole],20 ± 6
2,Cc1ccccc1O [2-Methylphenol],7.3 ± 1.5
3,c1ccc2[nH]ccc2c1 [Indole],0.28 ± 0.12

# Same assay, conditions: 20 s applications, Hill fit; mean ± SEM, 5–16 separate oocytes; read-out: EC50
row,SMILES,EC50 [µM]
1,Cc1cc2ccccc2[nH]1 [2-Methylindole],7.5 ± 4.1
2,Cc1c[nH]c2ccccc12 [3-Methylindole],20 ± 6
3,Cc1cccc2[nH]ccc12 [4-Methylindole],3.6 ± 0.8
4,Cc1ccc2[nH]ccc2c1 [5-Methylindole],8.6 ± 2
5,Cc1ccc2cc[nH]c2c1 [6-Methylindole],3 ± 0.6
6,Cc1cccc2cc[nH]c12 [7-Methylindole],18 ± 3

# Same assay, conditions: Hill fit of concentration-response data; mean ± SEM, 5–16 oocytes
row,SMILES,nH (Hill coefficient)
1,Cn1ccc2ccccc21 [1-Methylindole],1.3±0.5
2,Cc1cc2ccccc2[nH]1 [2-Methylindole],0.9±0.4
3,Cc1ccccc1O [2-Methylphenol],1.0±0.2
4,Cc1c[nH]c2ccccc12 [3-Methylindole],0.9±0.2
5,Cc1cccc2[nH]ccc12 [4-Methylindole],1.0±0.2
6,Cc1ccc2[nH]ccc2c1 [5-Methylindole],1.1±0.2
7,Cc1ccc2cc[nH]c2c1 [6-Methylindole],0.9±0.2
8,Cc1cccc2cc[nH]c12 [7-Methylindole],1.1±0.2
9,c1ccc2[nH]ccc2c1 [Indole],0.8±0.2

# Same assay, conditions: Xenopus oocyte system
row,SMILES,selectivity for indole over the various methylindoles
1,c1ccc2[nH]ccc2c1 [Indole],10- to 70 fold

# Same assay, conditions: each compound applied for 20 s at 10 µM
row,SMILES,current response in panel screen
1,Cc1ccccc1O [2-Methylphenol],responded well; also recorded: best responses for phenolic compounds
2,c1ccc2[nH]ccc2c1 [Indole],largest current responses

# Same assay, conditions: in words
row,SMILES,relative efficacies (maximal responses) compared with indole
1,Cc1ccccc1O [2-Methylphenol],lower relative efficacies than indole
2,Cc1cccc2[nH]ccc12 [4-Methylindole],lower relative efficacies than indole
3,Cc1ccc2[nH]ccc2c1 [5-Methylindole],lower relative efficacies than indole
4,Cc1ccc2cc[nH]c2c1 [6-Methylindole],lower relative efficacies than indole
5,Cc1cccc2cc[nH]c12 [7-Methylindole],lower relative efficacies than indole

# Same assay, conditions: maximum value from fit, as percentage of the maximum value for indole; mean ± SEM; read-out: Relative Efficacy
row,SMILES,Emax [%]
1,Cc1cc2ccccc2[nH]1 [2-Methylindole],106 ± 16
2,Cc1c[nH]c2ccccc12 [3-Methylindole],92 ± 8
3,Cc1cccc2[nH]ccc12 [4-Methylindole],60 ± 4
4,Cc1ccc2[nH]ccc2c1 [5-Methylindole],59 ± 4
5,Cc1ccc2cc[nH]c2c1 [6-Methylindole],69 ± 4
6,Cc1cccc2cc[nH]c12 [7-Methylindole],67 ± 4

# Same assay, conditions: read-out: Relative Efficacy
row,SMILES,Emax [%]
1,Cn1ccc2ccccc21 [1-Methylindole],84 ± 9
2,Cc1ccccc1O [2-Methylphenol],70 ± 9
3,c1ccc2[nH]ccc2c1 [Indole],100
